Marks after values point to notes of the source that are not given here.
Key:
[1] = tested on: Mice of the species/strain B6C3F1; test: Histopathological examination of the kidney after 13 weeks of oral gavage dosing; format: in vivo; conditions: for Vacuolar Degeneration of Renal Proximal Tubules (number of animals): 12 animals examined, 13 weeks
Protocol: Mice of the species/strain B6C3F1 of an initial age of 6 weeks were dosed via oral gavage with febuxostat suspended in 0.5% methyl cellulose. The daily dose administered was either 0 mg (i.e., the control group), 3 mg, 12 mg, 24 mg, or 48 mg. Histopathological examination of the kidney was carried out after 13-weeks of dosing for vacuolar degeneration of renal proximal tubules (a known naturally occurring change in rodents).

[2] = tested on: remnant kidney (RK) rats; test: Plasma uric acid in remnant kidney rats; format: in vivo, Male Wistar rats
Protocol: Male Wistar rats (295-340 g) were used to produce rats with remnant kidney (RK) as follows. […] Rats were then assigned to one of four treatment groups: Group 1, RK control rats (n=7); Group 2, RK+febuxostat (Fx) rats (n=8); Group 3, RK+oxonic acid (OA) rats (n=6); and Group 4, RK+OA+Fx (n=10). Oxonic acid (OA) (Sigma-Aldrich, St Louis Mo., USA), administered at 750 mg/kg body weight daily by oral gavage, was given starting the day after the ⅚ nephrectomy. Beginning immediately following the surgery, febuxostat was administered in drinking water at 30 mg/L (3-4 mg/kg/day), whereas the respective controls received only drinking water (with 3.5 mg/L of NaCl added to keep an equivalent salt concentration to the Fx-containing water). All groups were treated for four weeks. Body weight (beginning just before surgery) and food and water intakes were measured daily. Systolic blood pressure, measured in conscious rats by a tail cuff sphygmomanometer, and plasma uric acid (UA) levels were measured at just before surgery (namely, at baseline) and at the end of the four weeks. Proteinuria was measured at baseline and at the end of two and four weeks. A renal micropuncture procedure along with systemic blood pressure monitoring under pentobarbital anesthesia was performed at the end of four weeks followed by morphologic evaluation of the renal preglomerular microvasculature. Food and water intake were determined daily. Systolic blood pressure (SBP) was measured by a tail-cuff sphygmomanometer using an automated system (XBP-100; Kent Scientific Co, Torrington, Conn., USA) in conscious animals. […] Plasma uric acid was quantified using a commercial kit (Diagnostic Chemicals Ltd, Charlottetown, PEI, Canada). Proteinuria was determined by turbidimetry by the method of trichloroacetic acid as described in Henry R J et al., “Turbidimetric determination of proteins with sulfosalicylic and tricholoroacetic acids”, Proc Soc Exp Biol Med 92:748-751 (1956), the contents of which are herein incorporated by reference.

[3] = tested on: hyperuricemic gout patients; test: FOCUS long-term open-label study: eGFR, serum creatinine and serum urate; format: in vivo, human; conditions: for GFR (estimated by MDRD, mean) / sCr (mean) / sUA (mean): all subjects
Protocol: The objective of this study was to assess the long-term renal function effects, measured as estimated GFR (eGFR), in a cohort of hyperuricemic gout patients treated febuxostat. Febuxostat was administered at a dosing regimen that chronically maintained a serum urate level (sUA) of <6.0 mg/dL. Of 145 subjects completing a 28-day, double-blind, placebo-controlled trial (See, Becker M A, Schumacher H R, Jr., Wortmann R L, MacDonald P A, Palo […], et al., “Febuxostat, a novel nonpurine selective inhibitor of xanthine oxidase: a twenty-eight-day, multicenter, phase II, randomized, double-blind, placebo-controlled, dose-response clinical trial examining safety and efficacy in patients with gout.” Arthritis and rheumatism, March: 52(3):916-23 (2005)), 116 enrolled in the long-term, 5.5 year Febuxostat Open-label Clinical trial of Urate-lowering efficacy and […] (FOCUS) study. Baseline data were collected upon entry to the initial 28-day trial. Subjects initially received febuxostat 80 mg/day; between weeks 4 to 24 the dose of febuxostat could be titrated to 40 or 120 mg/day to maintain a sUA between <6.0 mg/dL but not lower than 3.0 mg/dL. Age 18 to 85 years with a history or presence of gout as defined by the American College of Rheumatology (Wallace S L, Robinson […], Yu T F, “Preliminary criteria for the classification of the acute arthritis of primary gout.” Arthritis and rheumatism. 1977 April; 20(3):895-900 (1977)). sUA level of ≧8.0 mg/dL at screening for the initial 28-day, double-blind study. […] GFR was estimated (eGFR) using the Modification of Diet in Renal Disease (MDRD) equation shown below: […] otherwise, S=0.742 if subject is female and 1 if male. The predictors, time (year), average sUA on study drug, baseline eGRF, and sUA change from baseline were evaluated for a relationship to eGFR change from baseline using a repeated measures linear model. Backwards selection (p=0.1) was used to reduce the model down to those predictors that best explained the eGRF change from baseline.

With `Cc1nc(-c2ccc(OCC(C)C)c(C#N)c2)sc1C(=O)O` [febuxostat, 2-[3-cyano-4-(2-methylpropoxy)phenyl]-4-methylthiazole-5-carboxylic acid] the “Vacuolar Degeneration of Renal Proximal Tubules (number of animals)” value (“Vacuolar Degeneration … (number of animals)” below) ([1]; Daily Dose 3, Female) was 1, the “Vacuolar Degeneration … (number of animals)” value ([1]; Daily Dose 3, Male) was 7* and the “Vacuolar Degeneration … (number of animals)” value ([1]; Daily Dose 12, Female) was 1. The “Vacuolar Degeneration … (number of animals)” value ([1]; Daily Dose 12, Male) was 5**, the “Vacuolar Degeneration … (number of animals)” value ([1]; Daily Dose 24, Female) was 0 and the “Vacuolar Degeneration … (number of animals)” value ([1]; Daily Dose 24, Male) was 2**. For the same compound, the “Vacuolar Degeneration … (number of animals)” value ([1]; Daily Dose 48, Female) was 2, the “Vacuolar Degeneration … (number of animals)” value ([1]; Daily Dose 48, Male) was 1** and the “Vacuolar degeneration of the renal proximal tubules (in words)” value ([1]; male animals) was “reduced the amount of vacuolar degeneration of the renal proximal tubules in a statistically significant fashion”. For the same compound, the “Plasma uric acid as % of the value measured in the RK control rats” value ([2]; RK rats receiving febuxostat, end of four weeks, difference not statistically significant) was “approximately 63%”, the “Plasma uric acid in OA-treated rats (in words)” value ([2]; febuxostat added to OA-treated RK rats) was “prevented the'rise of uric acid levels” and the “Measures of renal function (GFR estimated by MDRD and sCr) (in words)” value ([3]; 5-year study period) was “stable over the 5-year study period”. The “Baseline eGFR in a subsequent febuxostat study vs FOCUS baseline (in words)” value ([3]; 18 subjects who completed FOCUS and enrolled in another febuxostat study) was “all but 1 of these subjects had a baseline eGRF in the new study that was higher”, the “GFR (estimated by MDRD, mean)” value ([3]; Year 1 (n = 115)) was 65.7 mL/min and the “sCr (mean)” value ([3]; Year 1 (n = 115)) was 1.2 mg/dL. For the same compound, the “sUA (mean)” value ([3]; Year 1 (n = 115), excludes initial 28-day trial) was 5.1 mg/dL, the “GFR (estimated by MDRD, mean)” value ([3]; Year 2 (n = 84)) was 66.0 mL/min and the “sCr (mean)” value ([3]; Year 2 (n = 84)) was 1.2 mg/dL. The “sUA (mean)” value ([3]; Year 2 (n = 84)) was 5.1^b mg/dL, the “GFR (estimated by MDRD, mean)” value ([3]; Year 3 (n = 71)) was 63.2 mL/min and the “sCr (mean)” value ([3]; Year 3 (n = 71)) was 1.3 mg/dL. For the same compound, the “sUA (mean)” value ([3]; Year 3 (n = 71)) was 5.0 mg/dL, the “GFR (estimated by MDRD, mean)” value ([3]; Year 4 (n = 67)) was 64.2 mL/min and the “sCr (mean)” value ([3]; Year 4 (n = 67)) was 1.3 mg/dL. For the same compound, the “sUA (mean)” value ([3]; Year 4 (n = 67)) was 4.7^b mg/dL, the “GFR (estimated by MDRD, mean)” value ([3]; Year 5 (n = 60)) was 65.0 mL/min and the “sCr (mean)” value ([3]; Year 5 (n = 60)) was 1.3 mg/dL. For the same compound, the “sUA (mean)” value ([3]; Year 5 (n = 60)) was 4.8 mg/dL, the “mean serum urate (sUA)” value ([3]; baseline GFR <60, Year 1) was 5.1 mg/dL and the “mean serum urate (sUA)” value ([3]; baseline GFR <60, Year 2) was 4.8 mg/dL. The “mean serum urate (sUA)” value ([3]; baseline GFR <60, Year 3) was 4.8 mg/dL, the “mean serum urate (sUA)” value ([3]; baseline GFR <60, Year 4) was 4.5 mg/dL and the “mean serum urate (sUA)” value ([3]; baseline GFR <60, Year 5) was 4.6 mg/dL. For the same compound, the “mean serum urate (sUA)” value ([3]; baseline GFR ≧60, Year 1) was 5.2 mg/dL, the “mean serum urate (sUA)” value ([3]; baseline GFR ≧60, Year 2) was 5.1 mg/dL and the “mean serum urate (sUA)” value ([3]; baseline GFR ≧60, Year 3) was 5.1 mg/dL. For the same compound, the “mean serum urate (sUA)” value ([3]; baseline GFR ≧60, Year 4) was 4.7 mg/dL, the “mean serum urate (sUA)” value ([3]; baseline GFR ≧60, Year 5) was 4.9 mg/dL and the “eGFR benefit (in words)” value ([3]; limited data obtained during Year 6) was “even greater evidence of eGFR benefit”. The “Predicted eGFR improvement for each 1.0 mg/dL reduction in sUA” value ([3]; modeling, repeated measures linear model) was 1.0 mL/min, the “Relationship of sUA reduction from baseline to eGFR (in words)” value ([3]; p=0.02) was “correlated with greater improvements in eGFR over time” and the “Maintenance of sUA” value ([3]; throughout the study, regardless of baseline eGFR) was < 6.0 mg/dL.

Reference: patent publication US20130143886A1, “METHODS FOR PRESERVING AND/OR INCREASING RENAL FUNCTION USING XANTHINE OXIDOREDUCTASE INHIBITORS” (priority 2006, published 2013)
